These are literature values, as cited in patent publication US6488917B2, “Optical brighteners as bleaching agents” (L'Oreal, priority 1998, dated 2002).

In the data set the test system is melanocytes. The settings on record: known from the prior art.

Regarding `Oc1ccc(O)cc1` [hydroquinone], the cytotoxicity towards melanocytes entry was “known for its cytotoxicity towards melanocytes”.
